From patent US20250264397A1, “Light-field Flow Cytometer” (Georgia Tech Research Corporation, priority 2024, published 2025)

Tested on: Jurkat cells
Experiment: Jurkat cell apoptosis induced by staurosporine (STS) treatment, imaged by light-field flow cytometry (LFC)
Type: cell-based, human
Details: 1-μM STS
Experimental: Jurkat cell apoptosis induced by staurosporine (STS) treatment and staining. Jurkat T cells (e.g., #88042803, Sigma-Aldrich) were cultured in RPMI with 10% FBS and 1% Pen-Strep as a modified RPMI medium at 37° C. and in a 5% CO2 environment. On the imaging day, 1 μM of STS was added to 4 cell dishes, incubating for 30, 60, 120, and 300 min, respectively, at 37° C. The following procedures for preparing cells in the 4 dishes were the same. After the treatment, cells were centrifuged (e.g., 500× g, 6 min, 37° C.) and resuspended into the modified RPMI medium. After two rounds of centrifuge-washing, cells were resuspended into 6 mL of modified RPMI medium. For fluorescence labeling, 250 nM of SYTO16 green stains were added to the culture dish, and the cells were incubated for 1 hour. At the halfway of incubation (30 min), 150 nM of Mito Tracker Deep Red FM stains were added to the culture dish. After another 30 min, cells were centrifuged (e.g., 500× g, 6 min, 37° C.) and resuspended into 6 mL of the 4% PFA fixation buffer. Cells were fixed at room temperature for 12 min. After fixation, cells were centrifuged (800× g, 6 min, room temperature) and resuspended into PBS twice. Finally, cells were stored in PBS for imaging flow cytometry.
Imaging morphological changes in staurosporine-treated Jurkat cells. […]

CN[C@@H]1C[C@H]2O[C@@](C)([C@@H]1OC)n1c3ccccc3c3c4c(c5c6ccccc6n2c5c31)C(=O)NC4 [Staurosporine]
cells showed apoptotic nuclei (after 5 h of treatment): over 53% | Jurkat cell nuclear morphology (with the treatment period increased (30, 60, 120, 300 min)): reduced volumes and fragmented micronuclei
